ChEMBL document CHEMBL5726067, “[8-(phenylsulfonyl)-3,8-diazabicyclo[3.2.1]oct-3-yl](1H-1,2,3-triazol-4-yl)methanones” (2019)
pIC50: −log10 of the molar value.

Target: T1, Aldo-keto reductase family 1 member C3 (Homo sapiens, UniProt P42330)
T1 sequence (P42330 whole entry): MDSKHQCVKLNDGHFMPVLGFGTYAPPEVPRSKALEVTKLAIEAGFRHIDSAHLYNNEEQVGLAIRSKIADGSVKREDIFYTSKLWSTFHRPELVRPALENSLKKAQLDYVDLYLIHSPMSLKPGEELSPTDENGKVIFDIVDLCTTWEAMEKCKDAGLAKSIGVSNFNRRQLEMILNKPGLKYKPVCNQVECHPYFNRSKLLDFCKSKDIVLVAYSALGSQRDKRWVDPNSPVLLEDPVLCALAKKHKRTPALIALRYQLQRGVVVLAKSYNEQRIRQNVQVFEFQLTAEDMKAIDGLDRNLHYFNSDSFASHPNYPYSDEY
Assay: AKR1C3-Inhibitory Activity Assay: The enzyme used was recombinant human AKR1C3 (Aldo-keto reductase family 1 member C3; GenBank Accession No. NM_003739). This was expressed in E. coli as GST (glutathione S transferase) fusion protein and purified by glutathione Sepharose affinity chromatography. The GST was removed by digestion with thrombin and subsequent size exclusion chromatography (Dufort, I., Rheault, P., Huang, X F., Soucy, P., and Luu-The, V., Endocrinology 140, 568-574 (1999)).For the assay, 50 nl of a 100-fold concentrated solution of the test substance in DMSO were pipetted into a black low-volume 384-well microtiter plate (Greiner Bio-One, Frickenhausen, Germany), 2.5 μl of a solution of AKR1C3 in assay buffer [50 mM potassium phosphate buffer pH 7, 1 mM DTT, 0.0022% (w/v) Pluronic F-127, 0.01% BSA (w/v) and protease inhibitor cocktail (Complete, EDTA-free Protease Inhibitor Cocktail from Roche)] were added and the mixture was incubated for 15 min to allow pre-binding of the substances to the enzyme prior to the enzyme reaction. The enzyme reaction was then started by addition of 2.5 μl of a solution of NADPH (20 μM→final concentration in 5 μl of assay volume is 10 μM) and Coumberone (0.6 μM→final concentration in 5 μl of assay volume is 0.3 μM) in assay buffer, and the resulting mixture was incubated at 22° C. for the reaction time of typically 90 min. […]

SMILES	pIC50
O=C(c1cnn[nH]1)N1CC2CCC(C1)N2S(=O)(=O)c1ccccc1Br	9.15
O=C(c1cnn[nH]1)N1CC2CCC(C1)N2S(=O)(=O)c1ccccc1Cl	8.85
